Where a name gives a salt, the structure may show the parent alone.
Tests used:
[1] = test system: zebrafish hyaloid vasculature; test: Quantification of primary hyaloid vasculature branch number in Tg(fli1:EGFP) zebrafish; type: in vivo; settings: for inhibition of developmental angiogenesis of the hyaloid vasculature (number of primary hyaloid vessels): typically 10 μM or 5 μM, from 24 hpf, vs DMSO control; for dose-dependent inhibition of development of hyaloid vessels: decreasing doses 20, 10, 7.5, 5, 2.5, 1 and/or 0.5 μM, HCl salt
Outline: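 Tg(fli1:EGFP) larvae raised at 28° C on a 14/10 hr light cycle, euthanised and fixed overnight in 4% PFA at 4° C. Dissected lenses imaged by epi-fluorescence; hyaloid vessel patterning compared with DMSO controls and the archetypal pattern.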

[2] = test system: OE33R radio-resistant oesophageal adenocarcinoma cells; test: Quantification of glycolysis (ECAR, Seahorse), OE33R; type: cell-based, human; settings: 10 μM, 24 hours
Method: OE33P radio-sensitive and OE33R radio-resistant oesophageal adenocarcinoma cells were used to test the effects of compounds 11B HCl, 11B CC11 HCl, 11B CC16 HCl, 11B 471 and 11B 268 on glycolysis. Cells were maintained in RPMI media supplemented with 10% foetal calf serum, penicillin (100 U/ml) and streptomycin (100 μg/ml). A total of 11,000 or 13,000 cells, in 100 μl media, were seeded per well in 24 well plates and left to incubate for 24 hours, with an additional 150 μl media added after 5 hours. The media was replaced with solutions containing 10 μM of 11B HCl, […], 11B CC16 HCl, 11B 471, 11B 268 or fresh media as a control. Each drug had 6 replicates. After 24 hours of treatment, media was replaced with modified DMEM supplemented with 0.5 mM glucose. Rates of glycolysis were determined using Seahorse Biosciences metabolism technology. The media was disposed and the cells washed with PBS. The cells were fixed with 1% glutaraldehyde for 15 minutes and then stained with crystal violet for 30 minutes. The plates were blotted and dried overnight. The cells were resuspended with 1% TritonX-100 and shaken for 15 minutes. The absorbance was read on a spectrophotometer at 590 nm. Rates of glycolysis were then normalised to cell number.
OE33P radiosensitive oesophageal adenocarcinoma cells were used to test the effects of the compound 11B_ZHCl on glycolysis. Cells were maintained in RPMI media supplemented with 10% foetal calf serum, penicillin (100 U/ml) and streptomycin (100 μg/ml). A total of 11,000 cells, in 100 μl media, were seeded per well in 24 well plates and left to incubate for 24 hours, with an additional 150 μl media added after 5 hours. The media was replaced with solutions containing 10 μM of 11B_ZHCl or fresh media as a control. Each treatment had 6 replicates. After 24 hours of treatment, media was replaced with modified DMEM supplemented with 0.5 mM glucose. Rates of glycolysis were determined using Seahorse Biosciences metabolism technology. […] The absorbance was read on a spectrophotometer at 590 nm. […] No changes in ECAR were detected in OE33R treated cells.

[3] = test system: OE33P radio-sensitive oesophageal adenocarcinoma cells; test: Surviving fraction (colony formation), OE33P; type: cell-based, human; settings: 10 μM, 24 hours
Method: (§1) OE33P radio-sensitive and OE33R radio-resistant oesophageal adenocarcinoma cells were used to test the effects of the compounds 11B HCl and 11B CC11 HCl on cell survival. Cells were maintained in RPMI media supplemented with 10% foetal calf serum, penicillin (100 U/ml) and streptomycin (100 μg/ml). Cells were seeded in 6 well plates and left to incubate for 24 hours. The media was replaced with solutions containing 10 μM of 11B HCl, 11B CC11 HCl or fresh media as a control. After 24 hours of treatment, media was replaced. When control colonies had grown sufficiently large, the media was disposed and the cells washed with PBS. The cells were fixed with methanol and stained with crystal violet. The surviving fraction, the ability of the cells to form colonies was then determined.
as §1, with “replaced and cells were subjected to 2Gy radiation.” for “replaced.”, “Surviving” for “The surviving”
OE33P radio-sensitive and OE33R radio-resistant oesophageal adenocarcinoma cells were used to test the effects of the compounds 11B HCl and 11B CC11 HCl on cell survival. Cells were maintained in RPMI media supplemented with 10% foetal calf serum, penicillin (100 U/ml) and streptomycin (100 μg/ml). Cells were seeded in 6 well plates and left to incubate for 24 hours. […] Surviving fraction, the ability of the cells to form colonies was then determined.

[4] = test system: OE33R radio-resistant oesophageal adenocarcinoma cells; test: Surviving fraction (colony formation), OE33R; type: cell-based, human; settings: 10 μM, 24 hours
Method: as §1
as §1, with “replaced and cells were subjected to 2Gy radiation.” for “replaced.”, “Surviving” for “The surviving”
as §1, with “hours. The cells were subjected to 2Gy irradiation and the media was” for “hours. The media was”, “crystal violet. Surviving fraction, the” for “crystal violet. The surviving fraction, the”

[5] = treated prior to 2Gy irradiation
[6] = treated following 2Gy irradiation

Cl.Oc1ccccc1/C=C\c1ccc2ccccc2n1 [Compound 11B_Z_HCl, (Z)-2-(2-(Quinolin-2-yl)vinyl) phenol HCl salt]
inhibition of developmental angiogenesis of the hyaloid vasculature (number of primary hyaloid vessels) [1]: inhibit developmental angiogenesis of the zebrafish hyaloid vasculature in a statistically significant manner
extracellular acidification rate (ECAR), a measure of glycolysis [2]: No changes

Oc1ccccc1/C=C/c1ccc2ccccc2n1 [11B HCl]
extracellular acidification rate (ECAR), a measure of glycolysis [2]: significantly reduce
surviving fraction ([3]; no irradiation): significantly reduce
surviving fraction [3, 5]: significantly reduces
surviving fraction ([4]; no irradiation): significantly reduce
surviving fraction [4, 6]: significantly reduce
surviving fraction [4, 5]: significantly reduce

C/C(=C\c1ccccc1O)c1ccc2ccccc2n1.Cl [Compound 11B_CC11_HCl, (E)-2-(2-Quinolin-2-yl-propenyl)-phenol HCl salt]
dose-dependent inhibition of development of hyaloid vessels [1]: inhibit developmental angiogenesis of zebrafish hyaloid vasculature in a dose-dependent statistically significant manner
dose-dependent inhibition of development of hyaloid vessels ([1]; listed as 11B-CC11 HCl): dose-dependent effect
inhibition of developmental angiogenesis of the hyaloid vasculature (number of primary hyaloid vessels) [1]: inhibit developmental angiogenesis of the zebrafish hyaloid vasculature in a statistically significant manner
surviving fraction ([3]; no irradiation): significantly reduce
surviving fraction ([4]; no irradiation): significantly reduce
surviving fraction [4, 6]: significantly reduce
surviving fraction [4, 5]: significantly reduce

From patent publication US9815788B2, “Anti-angiogenic compounds” (University College Dublin National University of Ireland, …, priority 2012, dated 2017)
